For 29 compounds, logP results are on record in the SangsterLogP compilation.

As a reminder, the logP is a log measure of how a compound divides between an organic and an aqueous phase. Low values mean a more hydrophilic compound, high ones a more lipophilic compound. Turning to `CN[C@H](C)C(=O)NCc1ccc(OC)cc1`, the logP is 1.11.

The compound `CN[C@H](C)C(=O)NCc1ccc(F)cc1` yielded a logP of 1.51.

The compound `CNC(C)C(=O)NCc1cccnc1` (centres undefined) registered a logP of 0.05.

On to `CC(=O)N[C@@H](Cc1c[nH]c2ccccc12)C(=O)NCc1ccccc1`, for which the logP stood at 2.17.

Compound `CC(=O)N1CSCC1C(=O)NCc1ccccc1` (centres undefined) gave a logP of 1.29.

Consider `CC(=O)NCCCC(=O)NCc1ccccc1`, for which the logP stood at 1.01.

For the compound `CC(=O)N1CCC[C@@H]1C(=O)NCc1ccccc1`, the logP stood at 1.46.

Compound `O=C(NC(CCC1CCCCC1)C(=O)OCCC1CCCCC1)OCc1ccccc1` (centres undefined) yielded a logP of 6.39.

The compound `CC(=O)NC(CCCNC(=N)N[N+](=O)[O-])C(=O)NCc1ccccc1` (centres undefined) yielded a logP of 0.45.

`CC(=O)N(C)CCC(=O)NCc1ccccc1` displayed a logP of 1.12.

`CC(=O)N(C)CC(=O)NCc1ccccc1` displayed a logP of 0.94.

For the compound `CC(=O)N(C)C(C)C(=O)NCc1ccco1` (centres undefined), the logP was -0.55.

On to `CNC(C)C(=O)NCc1ccco1` (centres undefined), for which the logP was -0.66.

With `CC(=O)NC(CC(C)C)C(=O)NCc1ccccc1` (centres undefined), the logP was 2.31.

In turn, `CC(C(=O)NCc1ccccc1)N(C)C` (centres undefined) came in with a logP of 1.73.

As for `CC(=O)NC(C)(C)C(=O)NCc1ccccc1`, the logP was 1.32.

For the compound `CC(=O)NC(C)C(=O)NCC(C)C` (centres undefined), the logP was determined as 0.56.

As for `CN1CSCC1C(=O)NCc1ccccc1` (centres undefined), the logP was 1.85.

As for `CCNC(C)C(=O)NCc1ccccc1` (centres undefined), the log partition coefficient (logP) stood at 1.71.

For `CC(=O)NC(C)C(=O)NCCC(C)C` (centres undefined), the lipophilicity (logP) came to 0.88.

`CC(=O)NCCC(=O)NCc1ccccc1` yielded a logP of 0.76.

`CCCCNC(=O)C(C)NC(C)=O` (centres undefined) showed a logP of 0.55.

Consider `CC(C(=O)NCc1ccccc1)N(C)C(=O)OC(C)(C)C` (centres undefined), for which the logP turned out to be 2.94.

As to `CNCCC(=O)NCc1ccccc1`, the logP amounted to 1.01.

Take `O=C(NC(O)C(=O)O)OCc1ccccc1` (centres undefined): the logP was 1.63.

`CC(NC(=O)OCc1ccccc1)C(=O)OCc1ccccc1` (centres undefined) had a logP of 3.84.

The compound `CC(NC(=O)OCc1ccccc1)C(=O)NCc1ccccc1` (centres undefined) registered a lipophilicity (logP) of 3.52.

In turn, `CC(=O)N(C)C(C)C(=O)NCc1ccccc1` (centres undefined) had a logP of 1.48.

As for `CC(=O)NC(Cc1ccc(Cl)cc1)C(=O)NCc1ccccc1` (centres undefined), the logP was 3.72.
